Measurements reported in patent publication US10806702B2, “Bis-polymer lipid-peptide conjugates and nanoparticles thereof” (THE REGENTS OF THE UNIVERSITY OF CALIFORNIA, priority 2012, dated 2020).

Assays:
NDL tumors [1] = assay: Intravenous DOX-loaded micelles: organ fluorescence in NDL tumor mice; assay type: in vivo, FVB mice; settings: 24 and 72 h
[2] = Drug loading of micelles (thin film hydration, HPLC); assay type: physicochemical; settings: drug encapsulated in dC18-1coi(P2K)-P750 micelles
Method: DOX, paclitaxel and rapamycin loaded micelles were prepared using identical procedures by thin film hydration method. dC18-1coi(P2K)-P750 and the different drugs were dissolved in methanol in a glass vial and the solvent was evaporated in vacuum oven for 3 hours. The dried film containing the conjugate and drug was rehydrated with 25 mM phosphate buffer, pH 7.4, and the solution was stirred for 16 hours to allow the assembly into drug loaded 3-helix micelles. Free drug was removed by centrifugation followed by spin ultrafiltration (Amicon centrifugal filter units, MW cutoff: 3000 Da). The concentrate obtained was washed with water and lyophilized to obtain drug loaded micelles. The drug loaded micelles were dissolved in methanol and loading was determined by reverse phase HPLC monitoring the absorbance of drugs at 280 nm. For all characterization experiments of drug loaded micelles, lyophilized powder of micellar-drugs was dissolved in 25 mM phosphate buffer, pH 7.4, and the solution was heated in water bath at 60° C. for an hour to break potential aggregates to obtain a clear solution.
The solvent was evaporated in vacuum oven for 3 hours. […] The salts and free drug were removed by centrifugation followed by spin ultrafiltration (Amicon centrifugal filter units, MW cutoff: 3000 Da). […]
Drug loading content was determined by HPLC. […]

[3] = CED, 20 μl, DOX 0.2 mg/ml, a week after infusion
NDL tumors [4] = settings: stated as known; cited from earlier work

| Compound | fluorescence in different organs after free DOX injections (NDL tumors [1]) | Loading (wt %) [2] [wt %] | brain tissue toxicity (H&E staining) [3] | clearance time from blood circulation (NDL tumors [4]) |
| --- | --- | --- | --- | --- |
| COc1cccc2c1C(=O)c1c(O)c3c(c(O)c1C2=O)C[C@@](O)(C(=O)CO)C[C@@H]3O[C@H]1C[C@H](N)[C@H](O)[C@H](C)O1 [Doxorubicin, doxorubicin] | cannot be detected | 7.6 ± 0.4 | significant tissue damage | tens of minutes |
| CC(=O)O[C@H]1C(=O)[C@@]2(C)[C@H]([C@H](OC(=O)c3ccccc3)[C@]3(O)C[C@H](OC(=O)[C@H](O)[C@@H](NC(=O)c4ccccc4)c4ccccc4)C(C)=C1C3(C)C)[C@]1(OC(C)=O)CO[C@@H]1C[C@@H]2O [Paclitaxel, paclitaxel] |  | 1.9 ± 0.4 |  |  |
